Measurements published in patent US20250176599A1, “FLAVOR COMPOSITION AND FOOD AND BEVERAGE” (TAKASAGO INTERNATIONAL CORPORATION, priority 2021, published 2025).

Assays:
[1] = Sensory evaluation of aqueous solution III containing 1-octen-3-one 1 ppb: off-flavor intensity and masking component intensity; settings: average panel score
How it was run: (§1)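 Eight trained panelists tasted water solutions of the off-flavor compounds spiked with nootkatone. Masking-agent taste was scored absolutely from 0 (not sensed) to 4 (strong). Off-flavor was scored relatively, anchored at 4 for the solution without masker and 0 for ion-exchanged water.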

[2] = Sensory evaluation of aqueous solution II containing (E)-2-octenal 10 ppb: off-flavor intensity and masking component intensity; settings: average panel score
How it was run: as §1

[3] = Overall conclusion of the sensory evaluation across aqueous solutions I to VI
How it was run: as §1

[4] = Sensory evaluation of aqueous solution IV containing 1,5-octadien-3-one 100 ppt: off-flavor intensity and masking component intensity; settings: aqueous solution IV, average panel score
How it was run: as §1

[5] = Sensory evaluation of aqueous solution VI containing 1,5-octadien-3-ol 10 ppb: off-flavor intensity and masking component intensity; settings: aqueous solution VI, average panel score
How it was run: as §1

[6] = Sensory evaluation of aqueous solution I containing (E)-2-nonenal 1 ppb: off-flavor intensity and masking component intensity; settings: average panel score
How it was run: as §1

[7] = Sensory evaluation of aqueous solution V containing 1-octen-3-ol 10 ppb: off-flavor intensity and masking component intensity; settings: average panel score
How it was run: as §1

With CC(=O)/C(C)=C/C1C(C)=CCCC1(C)C (centres unmarked) [γ-methyl ionone] the “Masking Component Intensity” value ([1]; 0.01 ppt added) was 0.3, the “Off-Flavor Intensity” value ([1]; 0.01 ppt added) was 3.4 and the “Masking Component Intensity” value ([1]; 0.1 ppt added) was 0.3. For the same compound, the “Off-Flavor Intensity” value ([1]; 0.1 ppt added) was 3.3, the “Masking Component Intensity” value ([1]; 1 ppb added) was 1.6 and the “Off-Flavor Intensity” value ([1]; 1 ppb added) was 2.0. The “Masking Component Intensity” value ([1]; 1 ppm added) was 4.0, the “Off-Flavor Intensity” value ([1]; 1 ppm added) was 0.3 and the “Masking Component Intensity” value ([1]; 1 ppt added) was 0.4. For the same compound, the “Off-Flavor Intensity” value ([1]; 1 ppt added) was 3.1, the “Masking Component Intensity” value ([1]; 10 ppb added) was 2.5 and the “Off-Flavor Intensity” value ([1]; 10 ppb added) was 1.5. For the same compound, the “Masking Component Intensity” value ([1]; 10 ppt added) was 0.6, the “Off-Flavor Intensity” value ([1]; 10 ppt added) was 2.8 and the “Masking Component Intensity” value ([1]; 100 ppb added) was 3.5. The “Off-Flavor Intensity” value ([1]; 100 ppb added) was 1.1, the “Masking Component Intensity” value ([1]; 100 ppt added) was 0.9 and the “Off-Flavor Intensity” value ([1]; 100 ppt added) was 2.4. The “Masking Component Intensity” value ([2]; 0.01 ppt added) was 0.4, the “Off-Flavor Intensity” value ([2]; 0.01 ppt added) was 3.3 and the “Masking Component Intensity” value ([2]; 0.1 ppt added) was 0.5. For the same compound, the “Off-Flavor Intensity” value ([2]; 0.1 ppt added) was 3.1, the “Masking Component Intensity” value ([2]; 1 ppb added) was 2.1 and the “Off-Flavor Intensity” value ([2]; 1 ppb added) was 1.5. The “Masking Component Intensity” value ([2]; 1 ppm added) was 4.0, the “Off-Flavor Intensity” value ([2]; 1 ppm added) was 0.3 and the “Masking Component Intensity” value ([2]; 1 ppt added) was 0.8. The “Off-Flavor Intensity” value ([2]; 1 ppt added) was 2.8, the “Masking Component Intensity” value ([2]; 10 ppb added) was 2.8 and the “Off-Flavor Intensity” value ([2]; 10 ppb added) was 1.1. The “Masking Component Intensity” value ([2]; 10 ppt added) was 1.3, the “Off-Flavor Intensity” value ([2]; 10 ppt added) was 2.5 and the “Masking Component Intensity” value ([2]; 100 ppb added) was 3.8. The “Off-Flavor Intensity” value ([2]; 100 ppb added) was 0.6, the “Masking Component Intensity” value ([2]; 100 ppt added) was 1.5 and the “Off-Flavor Intensity” value ([2]; 100 ppt added) was 2.0. The “concentration that masks the off-flavor and does not affect the flavor of the food and/or beverage itself, lower limit” value [3] was at least 1 ppt, the “concentration that masks the off-flavor and does not affect the flavor of the food and/or beverage itself, upper limit” value [3] was at most 10 ppb and the “Masking Component Intensity” value ([4]; 0.01 ppt added) was 0.0. The “Off-Flavor Intensity” value ([4]; 0.01 ppt added) was 3.8, the “Masking Component Intensity” value ([4]; 0.1 ppt added) was 0.0 and the “Off-Flavor Intensity” value ([4]; 0.1 ppt added) was 3.5. The “Masking Component Intensity” value ([4]; 1 ppb added) was 1.5, the “Off-Flavor Intensity” value ([4]; 1 ppb added) was 2.1 and the “Masking Component Intensity” value ([4]; 1 ppm added) was 4.0. For the same compound, the “Off-Flavor Intensity” value ([4]; 1 ppm added) was 0.6, the “Masking Component Intensity” value ([4]; 1 ppt added) was 0.3 and the “Off-Flavor Intensity” value ([4]; 1 ppt added) was 3.4. The “Masking Component Intensity” value ([4]; 10 ppb added) was 2.3, the “Off-Flavor Intensity” value ([4]; 10 ppb added) was 1.6 and the “Masking Component Intensity” value ([4]; 10 ppt added) was 0.5. The “Off-Flavor Intensity” value ([4]; 10 ppt added) was 3.3, the “Masking Component Intensity” value ([4]; 100 ppb added) was 3.4 and the “Off-Flavor Intensity” value ([4]; 100 ppb added) was 1.0. The “Masking Component Intensity” value ([4]; 100 ppt added) was 0.6, the “Off-Flavor Intensity” value ([4]; 100 ppt added) was 2.8 and the “Masking Component Intensity” value ([5]; 0.01 ppt added) was 0.4. The “Off-Flavor Intensity” value ([5]; 0.01 ppt added) was 3.1, the “Masking Component Intensity” value ([5]; 0.1 ppt added) was 0.9 and the “Off-Flavor Intensity” value ([5]; 0.1 ppt added) was 3.1. The “Masking Component Intensity” value ([5]; 1 ppb added) was 1.9, the “Off-Flavor Intensity” value ([5]; 1 ppb added) was 1.9 and the “Masking Component Intensity” value ([5]; 1 ppm added) was 4.0. For the same compound, the “Off-Flavor Intensity” value ([5]; 1 ppm added) was 0.5, the “Masking Component Intensity” value ([5]; 1 ppt added) was 1.0 and the “Off-Flavor Intensity” value ([5]; 1 ppt added) was 2.8. The “Masking Component Intensity” value ([5]; 10 ppb added) was 2.8, the “Off-Flavor Intensity” value ([5]; 10 ppb added) was 1.3 and the “Masking Component Intensity” value ([5]; 10 ppt added) was 1.3. The “Off-Flavor Intensity” value ([5]; 10 ppt added) was 2.4, the “Masking Component Intensity” value ([5]; 100 ppb added) was 3.4 and the “Off-Flavor Intensity” value ([5]; 100 ppb added) was 0.9. For the same compound, the “Masking Component Intensity” value ([5]; 100 ppt added) was 1.6, the “Off-Flavor Intensity” value ([5]; 100 ppt added) was 2.1 and the “Masking Component Intensity” value ([6]; 0.01 ppt added) was 0.3. The “Off-Flavor Intensity” value ([6]; 0.01 ppt added) was 3.8, the “Masking Component Intensity” value ([6]; 0.1 ppt added) was 0.6 and the “Off-Flavor Intensity” value ([6]; 0.1 ppt added) was 3.4. For the same compound, the “Masking Component Intensity” value ([6]; 1 ppb added) was 2.0, the “Off-Flavor Intensity” value ([6]; 1 ppb added) was 2.1 and the “Masking Component Intensity” value ([6]; 1 ppm added) was 4.0. For the same compound, the “Off-Flavor Intensity” value ([6]; 1 ppm added) was 0.3, the “Masking Component Intensity” value ([6]; 1 ppt added) was 0.8 and the “Off-Flavor Intensity” value ([6]; 1 ppt added) was 3.1. For the same compound, the “Masking Component Intensity” value ([6]; 10 ppb added) was 2.5, the “Off-Flavor Intensity” value ([6]; 10 ppb added) was 1.6 and the “Masking Component Intensity” value ([6]; 10 ppt added) was 1.1. For the same compound, the “Off-Flavor Intensity” value ([6]; 10 ppt added) was 2.5, the “Masking Component Intensity” value ([6]; 100 ppb added) was 3.5 and the “Off-Flavor Intensity” value ([6]; 100 ppb added) was 1.0. The “Masking Component Intensity” value ([6]; 100 ppt added) was 1.5, the “Off-Flavor Intensity” value ([6]; 100 ppt added) was 2.4 and the “Masking Component Intensity” value ([7]; 0.01 ppt added) was 0.0. For the same compound, the “Off-Flavor Intensity” value ([7]; 0.01 ppt added) was 3.5, the “Masking Component Intensity” value ([7]; 0.1 ppt added) was 0.4 and the “Off-Flavor Intensity” value ([7]; 0.1 ppt added) was 3.3. For the same compound, the “Masking Component Intensity” value ([7]; 1 ppb added) was 2.3, the “Off-Flavor Intensity” value ([7]; 1 ppb added) was 1.9 and the “Masking Component Intensity” value ([7]; 1 ppm added) was 4.0. For the same compound, the “Off-Flavor Intensity” value ([7]; 1 ppm added) was 0.1, the “Masking Component Intensity” value ([7]; 1 ppt added) was 0.4 and the “Off-Flavor Intensity” value ([7]; 1 ppt added) was 3.3. The “Masking Component Intensity” value ([7]; 10 ppb added) was 2.9, the “Off-Flavor Intensity” value ([7]; 10 ppb added) was 1.5 and the “Masking Component Intensity” value ([7]; 10 ppt added) was 1.0. The “Off-Flavor Intensity” value ([7]; 10 ppt added) was 2.6, the “Masking Component Intensity” value ([7]; 100 ppb added) was 3.8 and the “Off-Flavor Intensity” value ([7]; 100 ppb added) was 0.8. The “Masking Component Intensity” value ([7]; 100 ppt added) was 1.4 and the “Off-Flavor Intensity” value ([7]; 100 ppt added) was 2.1.
